# Molecular target: PAR4 (Homo sapiens (Human), UniProt Q96RI0)
# Assay: FLIPR assay in PAR4-expressing HEK293 cells (PAR4 antagonist activity, calcium mobilization)
# Type: cell-based
# Conditions: H-Ala-Phe(4-F)-Pro-Gly-Trp-Leu-Val-Lys-Asn-Gly-NH2-induced calcium mobilization
# Method in brief: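 HEK293 EBNA cells stably expressing human PAR4 (also endogenous PAR1) preincubated 30 min at room temperature with compound in HBSS/10 mM HEPES, 0.67% DMSO final. PAR4 agonist peptide then added and intracellular calcium mobilization monitored by fluorescence.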
# PAR4, sequence (Q96RI0 18-385): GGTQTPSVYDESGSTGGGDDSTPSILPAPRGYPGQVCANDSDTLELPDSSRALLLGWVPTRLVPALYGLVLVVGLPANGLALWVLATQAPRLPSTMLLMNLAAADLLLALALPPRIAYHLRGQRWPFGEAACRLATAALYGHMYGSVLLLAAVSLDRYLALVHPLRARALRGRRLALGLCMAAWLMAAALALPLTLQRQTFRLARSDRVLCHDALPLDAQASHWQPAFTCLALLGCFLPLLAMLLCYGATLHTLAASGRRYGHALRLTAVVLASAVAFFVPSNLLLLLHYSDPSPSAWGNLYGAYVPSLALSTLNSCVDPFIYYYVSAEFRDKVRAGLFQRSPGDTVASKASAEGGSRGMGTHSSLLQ
row,SMILES,EC50 [nM]
1,"COc1cc(OCc2csc(N3CCOCC3)n2)c2cc(-c3cn4nc([C@H](C)F)sc4n3)oc2c1 [Example 193, (S)-4-(4-(((2-(2-(1-Fluoroethyl)imidazo[2,1-b][1,3,4]thiadiazol-6-yl)-6-methoxybenzofuran-4-yl)oxy)methyl)thiazol-2-yl)morpholine]",0.91
2,"COc1cc(OCc2csc(-c3ccc(C(=O)N(C)C)cc3)n2)c2cc(-c3cn4nc([C@H](C)F)sc4n3)oc2c1 [Example 194, (S)-4-(4-(((2-(2-(1-Fluoroethyl)imidazo[2,1-b][1,3,4]thiadiazol-6-yl)-6-methoxybenzofuran-4-yl)oxy)methyl)thiazol-2-yl)-N,N-dimethylbenzamide]",1.6
3,C[C@H](F)c1nn2cc(-c3cc4c(OCc5csc(-c6ccccc6)n5)cc(F)cc4o3)nc2s1 [Example 195],1.3
4,"COc1cc(OCc2csc(C3(O)CCOCC3)n2)c2cc(-c3cn4nc([C@H](C)F)sc4n3)oc2c1 [Example 196, (S)-4-(4-(((2-(2-(1-Fluoroethyl)imidazo[2,1-b][1,3,4]thiadiazol-6-yl)-6-methoxybenzofuran-4-yl)oxy)methyl)thiazol-2-yl)tetrahydro-2H-pyran-4-ol]",0.46
5,"COc1cc(OCc2csc(C3(F)CCOCC3)n2)c2cc(-c3cn4nc([C@H](C)F)sc4n3)oc2c1 [Example 197, (S)-2-(1-Fluoroethyl)-6-(4-((2-(4-fluorotetrahydro-2H-pyran-4-yl)thiazol-4-yl)methoxy)-6-methoxybenzofuran-2-yl)imidazo[2,1-b][1,3,4]thiadiazole]",0.34
6,"COc1cc(OCc2csc(C3(O)CC(C)OC(C)C3)n2)c2cc(-c3cn4nc([C@H](C)F)sc4n3)oc2c1 (stereo partly drawn) [Example 198, 4-(4-(((2-(2-((S)-1-Fluoroethyl)imidazo[2,1-b][1,3,4]thiadiazol-6-yl)-6-methoxybenzofuran-4-yl)oxy)methyl)thiazol-2-yl)-2,6-dimethyltetrahydro-2H-pyran-4-ol]",0.42
7,"COc1cc(OCc2csc(C3(F)CC(C)OC(C)C3)n2)c2cc(-c3cn4nc([C@H](C)F)sc4n3)oc2c1 (stereo partly drawn) [Example 199, 6-(4-((2-(4-Fluoro-2,6-dimethyltetrahydro-2H-pyran-4-yl)thiazol-4-yl)methoxy)-6-methoxybenzofuran-2-yl)-2-((S)-1-fluoroethyl)imidazo[2,1-b][1,3,4]thiadiazole]",1.1
8,"COc1cc(OCc2nc(C3(O)CCOCC3)sc2C)c2cc(-c3cn4nc([C@H](C)F)sc4n3)oc2c1 [Example 200, (S)-4-(4-(((2-(2-(1-Fluoroethyl)imidazo[2,1-b][1,3,4]thiadiazol-6-yl)-6-methoxybenzofuran-4-yl)oxy)methyl)-5-methylthiazol-2-yl)tetrahydro-2H-pyran-4-ol]",0.51
9,"COc1cc(OCc2csc(-c3ccccc3)n2)c2cc(-c3cn4nc(C)ccc4n3)oc2c1 [Example 203, 4-(((6-Methoxy-2-(6-methylimidazo[1,2-b]pyridazin-2-yl)benzofuran-4-yl)oxy)methyl)-2-phenylthiazole]",0.76
10,"COc1cc(OCc2csc(C3CCSCC3)n2)c2cc(-c3cn4nc(C)ccc4n3)oc2c1 [Example 204, 4-(((6-Methoxy-2-(6-methylimidazo[1,2-b]pyridazin-2-yl)benzofuran-4-yl)oxy)methyl)-2-(tetrahydro-2H-thiopyran-4-yl)thiazole]",0.72
11,"COc1cc(OCc2csc(Cl)n2)c2cc(-c3cn4nc(C)ccc4n3)oc2c1 [Example 206, 2-Chloro-4-(((6-methoxy-2-(6-methylimidazo[1,2-b]pyridazin-2-yl)benzofuran-4-yl)oxy)methyl)thiazole]",12
12,"COc1cc(OCc2csc(N3CCN(C)CC3)n2)c2cc(-c3cn4nc(C)ccc4n3)oc2c1 [Example 207, 4-(((6-Methoxy-2-(6-methylimidazo[1,2-b]pyridazin-2-yl)benzofuran-4-yl)oxy)methyl)-2-(4-methylpiperazin-1-yl)thiazole]",7.7
13,"COc1cc(OCc2csc(-c3ccc(C(F)(F)F)cc3)n2)c2cc(-c3cn4nc(C)ccc4n3)oc2c1 [Example 208, 4-(((6-Methoxy-2-(6-methylimidazo[1,2-b]pyridazin-2-yl)benzofuran-4-yl)oxy)methyl)-2-(4-(trifluoromethyl)phenyl)thiazole]",0.82
14,"COc1cc(OCc2csc(-c3ccc(OC(F)(F)F)cc3)n2)c2cc(-c3cn4nc(C)ccc4n3)oc2c1 [Example 210, 4-(((6-Methoxy-2-(6-methylimidazo[1,2-b]pyridazin-2-yl)benzofuran-4-yl)oxy)methyl)-2-(4-(trifluoromethoxy)phenyl)thiazole]",0.86
15,"COc1cc(OCc2csc(-c3ccncc3)n2)c2cc(-c3cn4nc(C)ccc4n3)oc2c1 [Example 211, 4-(((6-Methoxy-2-(6-methylimidazo[1,2-b]pyridazin-2-yl)benzofuran-4-yl)oxy)methyl)-2-(pyridin-4-yl)thiazole]",0.72
16,"COc1cc(OCc2csc(C3(F)CCOCC3)n2)c2cc(-c3cn4nc(C)ccc4n3)oc2c1 [Example 212, 2-(4-Fluorotetrahydro-2H-pyran-4-yl)-4-(((6-methoxy-2-(6-methylimidazo[1,2-b]pyridazin-2-yl)benzofuran-4-yl)oxy)methyl)thiazole]",0.29
17,COc1cc(OCc2csc(C3CCOCC3)n2)c2cc(-c3cn4nc(C)ccc4n3)oc2c1 [Example 213],3.6
18,COc1ccc(-c2nc(COc3cc(OC)cc4oc(-c5cn6nc(C)ccc6n5)cc34)cs2)cc1 [Example 214],1.2
19,COc1cc(OCc2csc(N3CCOCC3)n2)c2cc(-c3cn4nc(C)ccc4n3)oc2c1 [Example 215],3.3
20,COc1cc(OCc2csc(N3C[C@@H](C)O[C@@H](C)C3)n2)c2cc(-c3cn4nc(C)ccc4n3)oc2c1 [Example 216],0.99
21,COc1cc(OCc2csc(N3CCSCC3)n2)c2cc(-c3cn4nc(C)ccc4n3)oc2c1 [Example 217],0.61
22,COc1cc(OCc2csc(N3CCCOCC3)n2)c2cc(-c3cn4nc(C)ccc4n3)oc2c1 [Example 218],0.56
23,COc1cc(OCc2nc(N3CCOCC3)sc2C(F)(F)F)c2cc(-c3cn4nc(C)ccc4n3)oc2c1 [Example 220],0.72

# Further lines, results first:
row,EC50 [nM],SMILES
1,1.2,COc1cc(OCc2csc(-c3cccc(OC(C)=O)c3)n2)c2cc(-c3cn4nc(C)ccc4n3)oc2c1 [Example 221]
2,0.65,COc1cc(OCc2csc(-c3cccc(O)c3)n2)c2cc(-c3cn4nc(C)ccc4n3)oc2c1 [Example 222]
3,0.62,COc1cc(OCc2csc(-c3ccc(C(=O)N(C)C)cc3)n2)c2cc(-c3cn4nc(C)ccc4n3)oc2c1 [Example 223]
4,0.75,COc1cc(OCc2csc(-c3ccc(C#N)cc3)n2)c2cc(-c3cn4nc(C)ccc4n3)oc2c1 [Example 224]
5,0.54,COc1cc(OCc2nc(-c3ccc(C(=O)N(C)C)cc3)sc2C)c2cc(-c3cn4nc(C)ccc4n3)oc2c1 [Example 225]
6,0.81,COc1cc(OCc2csc(-c3ccc(COC(C)=O)cc3)n2)c2cc(-c3cn4nc(C)ccc4n3)oc2c1 [Example 226]
7,0.31,COc1cc(OCc2nc(-c3ccnc(F)c3)sc2C)c2cc(-c3cn4nc(C)ccc4n3)oc2c1 [Example 227]
8,0.18,COc1cc(OCc2csc(-c3ccc(F)nc3)n2)c2cc(-c3cn4nc(C)ccc4n3)oc2c1 [Example 228]
9,0.76,COc1cc(OCc2nc(-c3cccc(COC(C)=O)c3)sc2C)c2cc(-c3cn4nc(C)ccc4n3)oc2c1 [Example 229]
10,1.3,COc1cc(OCc2nc(-c3cccc(CO)c3)sc2C)c2cc(-c3cn4nc(C)ccc4n3)oc2c1 [Example 230]
11,1.8,COc1cc(OCc2csc(-c3ccc(C)nc3)n2)c2cc(-c3cn4nc(C)ccc4n3)oc2c1 [Example 231]
12,0.99,COc1cc(OCc2csc(-c3ccncc3)n2)c2cc(-c3cn4nc(C)ccc4n3)oc2c1 [Example 232]
13,2.8,COc1cc(OCc2csc(-c3ccc(Cl)nc3)n2)c2cc(-c3cn4nc(C)ccc4n3)oc2c1 [Example 233]
14,0.66,COc1cc(OCc2csc(-c3ccc(S(C)(=O)=O)cc3)n2)c2cc(-c3cn4nc(C)ccc4n3)oc2c1 [Example 234]
15,0.44,COc1cc(OCc2csc(N3CCC(F)(F)CC3)n2)c2cc(-c3cn4nc(C)ccc4n3)oc2c1 [Example 235]
16,1.9,COc1cc(OCc2csc(N3CCN(S(C)(=O)=O)CC3)n2)c2cc(-c3cn4nc(C)ccc4n3)oc2c1 [Example 236]
17,3.5,COc1cc(OCc2csc(N3CCN(S(=O)(=O)c4ccc(C#N)cc4)CC3)n2)c2cc(-c3cn4nc(C)ccc4n3)oc2c1 [Example 237]
18,0.73,CCc1sc(N2CCOCC2)nc1COc1cc(OC)cc2oc(-c3cn4nc(C)ccc4n3)cc12 [Example 238]
19,0.58,COc1cc(OCc2csc(C3CCC(F)(F)CC3)n2)c2cc(-c3cn4nc(C)ccc4n3)oc2c1 [Example 239]
20,6.9,COc1cc(OCc2csc(C3(c4cccc(Cl)c4)CCOCC3)n2)c2cc(-c3cn4nc(C)ccc4n3)oc2c1 [Example 240]
21,1.2,COc1cc(OCc2csc(C3(c4ccc(Cl)cc4)CCOC3)n2)c2cc(-c3cn4nc(C)ccc4n3)oc2c1 (centres unmarked) [Example 241]
22,0.59,COc1cc(OCc2csc(C3(c4ccc(C)cc4)CCOCC3)n2)c2cc(-c3cn4nc(C)ccc4n3)oc2c1 [Example 242]
23,1.4,COCCN(CCOC)c1nc(COc2cc(OC)cc3oc(-c4cn5nc(C)ccc5n4)cc23)cs1 [Example 246]
24,3.1,COc1cc(OCc2csc(Nc3cccc(N(C)C)c3)n2)c2cc(-c3cn4nc(C)ccc4n3)oc2c1 [Example 248]
25,3.6,COc1cc(OCc2csc(N(C)CCC#N)n2)c2cc(-c3cn4nc(C)ccc4n3)oc2c1 [Example 250]
26,11,COCCNc1nc(COc2cc(OC)cc3oc(-c4cn5nc(C)ccc5n4)cc23)cs1 [Example 251]
27,871,COc1cc(OCc2csc(N3CCC(N(C)C)CC3)n2)c2cc(-c3cn4nc(C)ccc4n3)oc2c1 [Example 252]

# Source: US9688695B2, “Imidazothiadiazole and imidazopyrazine derivatives as protease activated receptor 4 (PAR4) inhibitors for treating platelet aggregation” (BRISTOL-MYERS SQUIBB COMPANY, priority 2012, dated 2017)
